Reference: US20100009970A1, “COMPOSITIONS AND METHODS FOR TREATMENT OF VIRAL DISEASES” (Combinatorx (Singapore) Pte. Ltd., priority 2008, published 2010)

Key:
[1] = test system: Huh7 cells expressing a subgenomic RNA replicon of Con1 (genotype 1b) sequence origin
HER1-2 = target: T1, HER1-2 (Homo sapiens, UniProt P04626); details: selective HER1 inhibitor (vs. HER1-2); cited from earlier work
T1 construct: the other entry of the earlier key: EGFR (P00533, Epidermal growth factor receptor)
T1 sequence (P04626 with tags, fused parts or gaps): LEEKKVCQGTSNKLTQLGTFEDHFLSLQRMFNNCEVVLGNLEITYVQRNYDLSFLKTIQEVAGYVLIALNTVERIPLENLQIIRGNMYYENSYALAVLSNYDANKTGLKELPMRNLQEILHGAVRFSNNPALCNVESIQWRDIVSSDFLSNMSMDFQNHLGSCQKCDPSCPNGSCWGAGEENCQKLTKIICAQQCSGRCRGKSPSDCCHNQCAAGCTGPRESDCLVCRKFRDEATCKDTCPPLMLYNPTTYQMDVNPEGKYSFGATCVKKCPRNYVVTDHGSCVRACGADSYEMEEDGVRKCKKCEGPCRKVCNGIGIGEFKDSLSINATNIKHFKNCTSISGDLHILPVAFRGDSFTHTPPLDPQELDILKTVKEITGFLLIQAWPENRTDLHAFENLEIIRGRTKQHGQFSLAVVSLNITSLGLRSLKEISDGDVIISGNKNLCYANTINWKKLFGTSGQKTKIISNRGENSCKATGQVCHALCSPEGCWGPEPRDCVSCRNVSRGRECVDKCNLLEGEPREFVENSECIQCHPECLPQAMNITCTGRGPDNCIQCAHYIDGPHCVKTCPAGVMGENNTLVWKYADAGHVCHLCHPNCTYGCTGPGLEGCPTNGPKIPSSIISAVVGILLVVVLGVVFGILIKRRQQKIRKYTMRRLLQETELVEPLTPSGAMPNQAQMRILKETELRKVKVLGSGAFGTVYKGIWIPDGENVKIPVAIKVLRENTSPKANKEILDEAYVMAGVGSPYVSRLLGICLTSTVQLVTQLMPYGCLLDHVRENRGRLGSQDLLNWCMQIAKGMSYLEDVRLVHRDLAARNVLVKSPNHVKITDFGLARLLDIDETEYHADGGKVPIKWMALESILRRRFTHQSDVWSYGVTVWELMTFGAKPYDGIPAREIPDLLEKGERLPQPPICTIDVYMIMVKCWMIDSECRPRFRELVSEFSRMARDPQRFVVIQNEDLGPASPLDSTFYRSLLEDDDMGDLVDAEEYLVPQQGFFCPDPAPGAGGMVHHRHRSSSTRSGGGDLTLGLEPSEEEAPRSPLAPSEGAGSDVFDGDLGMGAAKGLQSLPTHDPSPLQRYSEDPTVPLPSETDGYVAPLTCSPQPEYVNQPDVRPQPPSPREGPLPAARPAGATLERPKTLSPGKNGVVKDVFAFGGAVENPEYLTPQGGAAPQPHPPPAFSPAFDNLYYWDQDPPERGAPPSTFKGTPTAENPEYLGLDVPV

N#C/C(=C\c1ccc(O)c(O)c1)C(=O)Nc1ccccc1 [AG-494, AG 494, reference compound]
IC50 [1]: 3.45 µM | IC50 (HER1-2): 45 µM
